Read-outs that look alike come from different tables or passages of the source.
What was measured:
BACE1 [1] = molecular target: T1, BACE1 (Homo sapiens (Human), UniProt P56817); assay: In vitro enzymatic BACE1 FRET assay; format: biochemical
Target sequence in this assay (P56817 46-501): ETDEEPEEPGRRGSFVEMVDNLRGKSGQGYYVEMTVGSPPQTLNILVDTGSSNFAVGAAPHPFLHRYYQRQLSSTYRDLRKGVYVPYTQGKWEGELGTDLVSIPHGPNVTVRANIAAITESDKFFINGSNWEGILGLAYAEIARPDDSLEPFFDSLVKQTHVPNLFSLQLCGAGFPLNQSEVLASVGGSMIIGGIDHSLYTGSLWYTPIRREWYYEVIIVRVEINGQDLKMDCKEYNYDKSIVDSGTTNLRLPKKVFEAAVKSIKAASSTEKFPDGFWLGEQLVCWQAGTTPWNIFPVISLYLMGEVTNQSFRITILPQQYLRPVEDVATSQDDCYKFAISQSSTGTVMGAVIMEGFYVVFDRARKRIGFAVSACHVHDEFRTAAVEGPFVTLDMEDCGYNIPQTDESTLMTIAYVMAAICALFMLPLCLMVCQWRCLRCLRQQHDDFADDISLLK
Description: (§1) In Vitro Enzymatic BACE1 and BACE2 FRET (Fluorescence Resonance Energy Transfer) Assays (Enzyme Assay Data in Table 1)

BACE1 [2] = molecular target: T1, BACE1; assay: BACE1 cell assay; format: cell-based
Target sequence in this assay (P56817 46-501, species assumed): as the sequence (P56817 46-501) above

BACE2 = BACE2 (Homo sapiens (Human), UniProt Q9Y5Z0); assay: In vitro enzymatic BACE2 FRET assay; format: biochemical
Description: as §1

Cathepsin D (CatD) = Cathepsin D (CatD) (Homo sapiens (Human), UniProt P07339); assay: CatD assay; format: biochemical; conditions: read-out: IC50 IP (μM) CatD
Chain of Cathepsin D (CatD) (P07339 65-412, species assumed): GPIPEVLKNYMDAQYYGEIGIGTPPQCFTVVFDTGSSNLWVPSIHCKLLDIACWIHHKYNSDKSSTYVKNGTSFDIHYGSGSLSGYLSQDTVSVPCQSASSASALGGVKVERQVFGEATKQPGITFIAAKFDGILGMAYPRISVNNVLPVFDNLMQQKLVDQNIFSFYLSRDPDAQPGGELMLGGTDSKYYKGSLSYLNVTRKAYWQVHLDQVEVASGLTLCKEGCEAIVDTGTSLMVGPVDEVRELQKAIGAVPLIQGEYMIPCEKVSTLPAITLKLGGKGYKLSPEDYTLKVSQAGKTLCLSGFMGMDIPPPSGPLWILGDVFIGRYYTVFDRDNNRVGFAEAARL

[3] = read-out: IC50 IP (μM) BACE1 Enzyme
[4] = read-out: IC50 IP (μM) BACE1 Cell
[5] = read-out: IC50 IP (μM) BACE2 Enzyme

Chain of BACE2 (Q9Y5Z0 63-518): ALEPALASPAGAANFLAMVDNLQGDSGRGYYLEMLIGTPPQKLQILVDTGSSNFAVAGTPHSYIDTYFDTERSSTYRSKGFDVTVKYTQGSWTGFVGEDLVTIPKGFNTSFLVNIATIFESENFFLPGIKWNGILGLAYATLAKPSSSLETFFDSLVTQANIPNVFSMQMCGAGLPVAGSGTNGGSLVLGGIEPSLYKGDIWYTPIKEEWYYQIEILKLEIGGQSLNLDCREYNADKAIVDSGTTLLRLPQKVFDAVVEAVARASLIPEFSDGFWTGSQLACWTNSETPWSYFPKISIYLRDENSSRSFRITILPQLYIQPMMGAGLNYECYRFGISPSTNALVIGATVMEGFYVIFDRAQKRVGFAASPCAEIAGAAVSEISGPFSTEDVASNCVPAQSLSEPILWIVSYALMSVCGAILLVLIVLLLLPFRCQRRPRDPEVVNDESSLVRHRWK

Structure (SMILES) | IC50 (BACE1 [1]; [3]) | IC50 (BACE1 [2]; [4]) | IC50 (BACE2; [5]) | IC50 (Cathepsin D (CatD)) | IC50 (BACE1 [1]) | IC50 (BACE1 [2]) | IC50 (BACE2)
CC(C)[C@H]1CN(C(=O)[C@]23C[C@H]2[C@@](C)(c2cc(/C=C(\F)c4ccc(C#N)cn4)ccc2F)N=C(N)S3)CCO1 [Example 316, 6-((Z)-2-(3-((1S,5S,6S)-3-amino-1-((S)-2-isopropylmorpholine-4-carbonyl)-5-methyl-2-thia-4-azabicyclo[4.1.0]hept-3-en-5-yl)-4-fluorophenyl)-1-fluorovinyl)nicotinonitrile] | 0.003 µM | 0.007 µM | 0.033 µM | 170 µM | – | – | –
CC(C)[C@@H]1CN(C(=O)[C@]23C[C@H]2[C@@](C)(c2cc(/C=C(\F)c4ccc(C#N)cn4)ccc2F)N=C(N)S3)CCO1 [Example 317, 6-((Z)-2-(3-((1S,5S,6S)-3-amino-1-((R)-2-isopropylmorpholine-4-carbonyl)-5-methyl-2-thia-4-azabicyclo[4.1.0]hept-3-en-5-yl)-4-fluorophenyl)-1-fluorovinyl)nicotinonitrile] | 0.0018 µM | 0.007 µM | 0.007 µM | 115 µM | – | – | –
C[C@]1(c2cc(/C=C(\F)c3ccc(C#N)cn3)ccc2F)N=C(N)S[C@@]2(C(=O)N3CCOC4(CC4)C3)C[C@H]21 [Example 318, 6-((Z)-2-(3-((1S,5S,6S)-3-amino-5-methyl-1-(4-oxa-7-azaspiro[2.5]octane-7-carbonyl)-2-thia-4-azabicyclo[4.1.0]hept-3-en-5-yl)-4-fluorophenyl)-1-fluorovinyl)nicotinonitrile] | 0.0029 µM | 0.0033 µM | 0.051 µM | 108 µM | – | – | –
C[C@]1(c2cc(/C=C(\F)c3ccc(C#N)cn3)ccc2F)N=C(N)S[C@@]2(C(=O)N3CC4CCC(C3)O4)C[C@H]21 [Example 319] | 0.0025 µM | 0.0017 µM | 0.097 µM | 318 µM | – | – | –
C[C@]1(c2cc(/C=C(\F)c3ccc(C#N)cn3)ccc2F)N=C(N)S[C@@]2(C(=O)N3CC4(CCOCC4)C3)C[C@H]21 [Example 320, 6-((Z)-2-(3-((1S,5S,6S)-3-amino-5-methyl-1-(7-oxa-2-azaspiro[3.5]nonane-2-carbonyl)-2-thia-4-azabicyclo[4.1.0]hept-3-en-5-yl)-4-fluorophenyl)-1-fluorovinyl)nicotinonitrile] | 0.0052 µM | 0.0024 µM | 0.039 µM | 292 µM | – | – | –
C[C@H]1CN(C(=O)[C@]23C[C@H]2[C@@](C)(c2cc(/C=C(\F)c4ccc(C#N)cn4)ccc2F)N=C(N)S3)CCO1 [Example 321, 6-((Z)-2-(3-((1S,5S,6S)-3-amino-5-methyl-1-((S)-2-methylmorpholine-4-carbonyl)-2-thia-4-azabicyclo[4.1.0]hept-3-en-5-yl)-4-fluorophenyl)-1-fluorovinyl)nicotinonitrile] | 0.0035 µM | 0.0027 µM | 0.111 µM | 578 µM | – | – | –
CC(C)[C@@H]1COCCN1C(=O)[C@]12C[C@H]1[C@@](C)(c1cc(/C=C(\F)c3ccc(C#N)cn3)ccc1F)N=C(N)S2 [Example 322, 6-((Z)-2-(3-((1S,5S,6S)-3-amino-1-((R)-3-isopropylmorpholine-4-carbonyl)-5-methyl-2-thia-4-azabicyclo[4.1.0]hept-3-en-5-yl)-4-fluorophenyl)-1-fluorovinyl)nicotinonitrile] | 0.0021 µM | 0.0026 µM | 0.03 µM | 27.8 µM | – | – | –
C[C@H]1CN(C(=O)[C@]23C[C@H]2[C@@](C)(c2cc(/C=C(\F)c4ccc(C#N)cn4)ccc2F)N=C(N)S3)C[C@H](C)O1 [Example 323, 6-((Z)-2-(3-((1S,5S,6S)-3-amino-1-((2S,6S)-2,6-dimethylmorpholine-4-carbonyl)-5-methyl-2-thia-4-azabicyclo[4.1.0]hept-3-en-5-yl)-4-fluorophenyl)-1-fluorovinyl)nicotinonitrile] | 0.0031 µM | 0.0026 µM | 0.192 µM | 411 µM | – | – | –
C[C@]1(c2cc(/C=C(\F)c3ccc(C#N)cn3)ccc2F)N=C(N)S[C@@]2(C(=O)N3CCC(F)(F)CC3)C[C@H]21 [Example 325, 6-((Z)-2-(3-((1S,5S,6S)-3-amino-1-(4,4-difluoropiperidine-1-carbonyl)-5-methyl-2-thia-4-azabicyclo[4.1.0]hept-3-en-5-yl)-4-fluorophenyl)-1-fluorovinyl)nicotinonitrile] | 0.0019 µM | 0.0042 µM | 0.089 µM | 446 µM | – | – | –
C[C@]1(c2cc(/C=C(\F)c3ccc(C#N)cn3)ccc2F)N=C(N)S[C@@]2(C(=O)N3CCC(F)CC3)C[C@H]21 [Example 326, 6-((Z)-2-(3-((1S,5S,6S)-3-amino-1-(4-fluoropiperidine-1-carbonyl)-5-methyl-2-thia-4-azabicyclo[4.1.0]hept-3-en-5-yl)-4-fluorophenyl)-1-fluorovinyl)nicotinonitrile] | 0.0016 µM | 0.0022 µM | 0.045 µM | 648 µM | – | – | –
C[C@]1(c2cc(/C=C(\F)c3ccc(C#N)cn3)ccc2F)N=C(N)S[C@@]2(C(=O)N3CCC4(CCO4)C3)C[C@H]21 (stereo partly drawn) [Example 327, 6-((Z)-2-(3-((1S,5S,6S)-3-amino-5-methyl-1-(1-oxa-6-azaspiro[3.4]octane-6-carbonyl)-2-thia-4-azabicyclo[4.1.0]hept-3-en-5-yl)-4-fluorophenyl)-1-fluorovinyl)nicotinonitrile] | 0.0008 µM | 0.0003 µM | 0.028 µM | 143 µM | – | – | –
COC[C@H]1COCCN1C(=O)[C@]12C[C@H]1[C@@](C)(c1cc(/C=C(\F)c3ccc(C#N)cn3)ccc1F)N=C(N)S2 [Example 328, 6-((Z)-2-(3-((1S,5S,6S)-3-amino-1-((S)-3-(methoxymethyl)morpholine-4-carbonyl)-5-methyl-2-thia-4-azabicyclo[4.1.0]hept-3-en-5-yl)-4-fluorophenyl)-1-fluorovinyl)nicotinonitrile] | 0.0023 µM | 0.0019 µM | 0.085 µM | 40.3 µM | – | – | –
C[C@H]1CN(C(=O)[C@]23C[C@H]2[C@@](C)(c2cc(/C=C(\F)c4ccc(C#N)cn4)ccc2F)N=C(N)S3)[C@@H](C)CO1 [Example 329, 6-((Z)-2-(3-((1S,5S,6S)-3-amino-1-((2S,5S)-2,5-dimethylmorpholine-4-carbonyl)-5-methyl-2-thia-4-azabicyclo[4.1.0]hept-3-en-5-yl)-4-fluorophenyl)-1-fluorovinyl)nicotinonitrile] | 0.0045 µM | 0.0035 µM | 0.124 µM | 73.9 µM | – | – | –
C[C@@H]1CN(C(=O)[C@]23C[C@H]2[C@@](C)(c2cc(/C=C(\F)c4ccc(C#N)cn4)ccc2F)N=C(N)S3)[C@H](C)CO1 [Example 330, 6-((Z)-2-(3-((1S,5S,6S)-3-amino-1-((2R,5R)-2,5-dimethylmorpholine-4-carbonyl)-5-methyl-2-thia-4-azabicyclo[4.1.0]hept-3-en-5-yl)-4-fluorophenyl)-1-fluorovinyl)nicotinonitrile] | 0.0086 µM | 0.0177 µM | 0.239 µM | 138 µM | – | – | –
C[C@]1(c2cc(/C=C(\F)c3ccc(C#N)cn3)ccc2F)N=C(N)S[C@@]2(C(=O)N3CCOCC34CCC4)C[C@H]21 [Example 331, 6-((Z)-2-(3-((1S,5S,6S)-3-amino-5-methyl-1-(8-oxa-5-azaspiro[3.5]nonane-5-carbonyl)-2-thia-4-azabicyclo[4.1.0]hept-3-en-5-yl)-4-fluorophenyl)-1-fluorovinyl)nicotinonitrile] | 0.0013 µM | 0.0032 µM | 0.061 µM | 8.9 µM | – | – | –
CC1(C)COCCN1C(=O)[C@]12C[C@H]1[C@@](C)(c1cc(/C=C(\F)c3ccc(C#N)cn3)ccc1F)N=C(N)S2 [Example 332, 6-((Z)-2-(3-((1S,5S,6S)-3-amino-1-(3,3-dimethylmorpholine-4-carbonyl)-5-methyl-2-thia-4-azabicyclo[4.1.0]hept-3-en-5-yl)-4-fluorophenyl)-1-fluorovinyl)nicotinonitrile] | 0.0023 µM | 0.0026 µM | 0.109 µM | 117 µM | – | – | –
CC[C@H]1COCCN1C(=O)[C@]12C[C@H]1[C@@](C)(c1cc(/C=C(\F)c3ccc(C#N)cn3)ccc1F)N=C(N)S2 [Example 334, 6-((Z)-2-(3-((1S,5S,6S)-3-amino-1-((S)-3-ethylmorpholine-4-carbonyl)-5-methyl-2-thia-4-azabicyclo[4.1.0]hept-3-en-5-yl)-4-fluorophenyl)-1-fluorovinyl)nicotinonitrile] | 0.0064 µM | 0.0041 µM | 0.146 µM | 19 µM | – | – | –
C[C@]1(c2cc(/C=C(\F)c3ccc(C#N)cn3)ccc2F)N=C(N)S[C@@]2(C(=O)N3CCOC[C@@H]3CO)C[C@H]21 [Example 335] | – | – | – | 148 µM | 0.0028 µM | 0.0026 µM | 0.186 µM
C[C@H]1[C@H](O)CCN1C(=O)[C@]12C[C@H]1[C@@](C)(c1cc(/C=C(\F)c3ccc(C#N)cn3)ccc1F)N=C(N)S2 [Example 336, 6-((Z)-2-(3-((1S,5S,6S)-3-amino-1-((2S,3R)-3-hydroxy-2-methylpyrrolidine-1-carbonyl)-5-methyl-2-thia-4-azabicyclo[4.1.0]hept-3-en-5-yl)-4-fluorophenyl)-1-fluorovinyl)nicotinonitrile] | 0.0013 µM | 0.0005 µM | 0.055 µM | 151 µM | – | – | –
C[C@]1(c2cc(/C=C(\F)c3ccc(C#N)cn3)ccc2F)N=C(N)S[C@@]2(C(=O)N3CCCC3c3ccccc3)C[C@H]21 (stereo partly drawn) [Example 337, 6-((Z)-2-(3-((1S,5S,6S)-3-amino-5-methyl-1-(2-phenylpyrrolidine-1-carbonyl)-2-thia-4-azabicyclo[4.1.0]hept-3-en-5-yl)-4-fluorophenyl)-1-fluorovinyl)nicotinonitrile] | 0.0044 µM | 0.01 µM | 0.046 µM | 2.4 µM | – | – | –
